This note sets out measurements from US9896512B2, “Antitumor peptide derived from a complementarity determining region of a humanized monoclonal antibody to NAP12B transporter” (Recepta Biopharma S.A., priority 2010, dated 2018).

Where two headings read alike, the source gives them in different places. Non-standard residues stand in square brackets, D forms with d. Residues, ends and D or L forms follow the SMILES beside them. No end group written: not given here. Bounds are passed on as bounds.

As a reminder, the half-life is the time needed for the level to fall by half in the phase considered. A low value points to rapid decline.

Data set [1] concerns B16F10-Nex2 melanoma cells. Put plainly: Cell migration, wound healing assay. The format is cell-based, murine. Conditions: peptide 500 μM, 24 hours after wounding. The procedure: (§1) For the migration studies, 5×10^5 or 10^6 cells were distributed on 6-well plates and let them to adhere for 2 hours at 37° C./5% CO2. The culture medium was changed and the peptide was added at 500 μM overnight. The cell monolayer was “wounded” with a P1000 tip and incubated for 24 hours. Images of untreated cells (control) and peptide treated cells were captured with a JENOPTIK camera. Cell numbers (nuclei) were determined using the Pixcavator software version 5.0.
Viable B16F10-Nex2 cells (5×105)/well were distributed on a 6-well culture plate and incubated overnight at 37° C. in a humidified chamber with 5% CO2. A P1000 tip was used for wounding the cell monolayer and the image was immediately captured (0 hour) using a camera (Jenoptik) with the software Progres 2.8. After 24 hours a new image of the same field was obtained and recorded (24 hours).
Viable B16F10-Nex2 cells (3×10^5)/well were distributed in a 12-well culture plate and incubated for 4 hours at 37° C. in a humidified chamber with 5% CO2. Fresh medium containing RB10 (SEQ ID NO: 9) at different concentrations was added to the wells and incubated again for 4 hours. The monolayer wounding was performed as described above in Example 12, and images obtained accordingly. After 24 hours a new image in the same field was obtained and recorded (24 hours). […] Magnification ×100.

In data set [2] the test system is human cervix cancer SiHa cells. As to the kind of experiment: Cell migration, wound healing assay. The format is cell-based. The settings on record: peptide 500 μM, 24 hours. As for the experimental part:
as §1

For data set [3], the system named is human cervix cancer HeLa cells. As to the kind of experiment: Cell migration, wound healing assay. The format is cell-based. Conditions: peptide 500 μM, 24 hours. As for the experimental part:
as §1

Data set [4] concerns human glioblastoma U87 cells. Put plainly: Cell migration, wound healing assay. Conditions: peptide 500 μM, 24 hours. The format is cell-based. The procedure:
as §1

Data set [5] deals with tumor cells. Put plainly: Cell adherence assay (detachment with trypsin/EDTA). The format is cell-based. The procedure: At a lower dose, cells would be detached with trypsin/EDTA at rates inversely proportional to the peptide concentration. Conceivably, peptides RB9 and RB10 affected the cytoskeleton dynamics of cells, thus signaling increased cell adhesion.
B16F10-Nex2.1 cells (5×10^3) and U87-MG cells (1×10^4) were cultivated in 96-well plates and incubated with different concentrations of RB9 (SEQ ID NO: 8) and RB10 (SEQ ID NO: 9) from 0.01 to 1 mM (i.e., 0.01, 0.05, 0.1, 0.25, 0.7, 0.8 and 1 mM of RB9 and RB10 for B16F10-Nex 2.1 cells; and 0.25, 0.5, 0.75 and 1 mM of RB9 and RB10 for U87-MG cells). After 18 hours incubation, viable cells detached with trypsin/EDTA were counted using Trypan blue exclusion staining. All assays were performed in triplicate in two independent experiments.
SKBR3 cells (1×10^4) were cultivated in 96-well plates and incubated with RB9 (SEQ ID NO: 8) and RB10 (SEQ ID NO: 9). After 18 hours incubation, viable cells detached with trypsin/EDTA were counted using Trypan blue exclusion staining. Assays were performed in triplicate in two independent experiments. The A2058 human melanoma cells (1×10^4) were incubated for 4 hours at 37° C. in a humidified chamber with 5% CO2. Fresh media containing different peptide concentrations of RB9 and RB10 ranging from 0 to 1 mM (i.e., 0, 0.25, 0.5 and 1 mM) was added to the wells and incubated for 24 hours. The media was then aspirated, cells were detached with 30 μl/well of trypsin-EDTA for five minutes at 37° C. and viable cells were counted in a Neubauer chamber using Trypan blue. As shown in FIGS. 2A-2D, 50% of cells were trypsin-EDTA resistant at 630 and 610 μM RB9 and RB10, respectively.

In data set [6] the test system is melanoma B16F10-Nex2 cells. Put plainly: Alanine scanning series cell adhesion assay (MTT after trypsin-EDTA). In kind it is cell-based, murine. The settings on record: 1 mM peptide, 24 hours. The procedure: The peptide RB10 (SEQ ID NO: 9) was engineered to replace each amino acid by alanine using Ala-scan methodology, and thus help evaluate the role of each amino acid on biological effect, specifically on the hyper-adherence observed with 1 mM peptide.
For this purpose, viable melanoma B16F10-Nex2 cells (1×10^4)/well were distributed on a 96-well culture plate and incubated for 4 hours. Fresh media containing 1 mM of the alanine-scanning series for RB10 was added and incubated for 24 hours. Treated cells were detached with 30 μl/well of trypsin-EDTA for five minutes at 37° C. and gently washed with PBS. Cells were incubated for 4 hours with 0.5 mg/mL of MTT [3-(4,5-Dimethylthiazol-2-yl)-2,5-diphenyltetrazolium bromide] in fresh media and the formazan crystals were solubilized adding 1 volume of a 10% SDS solution overnight. Intensity was measured using a plate reader at 570 nm. […] The 100% value for each peptide represented the treated cells that had not been trypsinized.

In data set [7] the test system is tumor cells. Put plainly: Antitumor activity of RebMab 200 CDR peptides. The format is cell-based. From the text: (§2) Details of the in vitro tumor cell growth, cytotoxicity tests, determination of viable cells and in vivo protection experiments with B16F10 cells in a mouse metastatic model are described in Polonelli et al. (PLoS One. 3(6):e2371, 2008) and Dobroff et al. (Translat. Onc., 3: 204-217, 2010).
Amidated RebMab 200 CDR H2 (SEQ ID NO: 7) shares up to sixteen (16) identical amino acids with similar H2 fragments from several murine antibodies of various specificities.

The nature of data set [8]: Peptide degradation by human plasma (HPLC / mass spectrum). Conditions: human plasma, 37° C. In kind it is in vitro ADME. The procedure: Peptides have variable half lives in the plasma due to the proteolytic activity and the renal filtration, which are relevant aspects in the pharmacokinetics of drug candidates.
To analyze the peptide in HPLC and Mass Spectrum, an aliquot of 200 μL was transferred to a new Eppendorf tube and proteins were precipitated with 20 μL trifluoroacetic acid for 5 minutes at 4° C. After centrifugation for 10 minutes at 14,000 rpm, the supernatant was analyzed in an LC/ESI-MS (Waters).
Regarding assays for determining time-lapse plasma degradation of RB9 peptide, peptide degradation by human plasma was monitored in HPLC and Mass spectra every 30 minutes as described above (FIG. 12). About 50% RB9 was cleaved after 2 hours of incubation at 37° C.

Data set [9] deals with B16F10-Nex2 melanoma cells. As to the kind of experiment: In vivo protection against lung colonization (metastatic melanoma model). Set-up: species or system C57B1/6 mice. The settings on record: 250 μg i.p. on days 1, 3, 5, 7, 9, 11; lungs after 22 days. As for the experimental part:
as §2
Peptides RB9 and RB10 along with the apoptotic peptide A4H3, a true microantibody of cytotoxic anti-melanoma mAb (A4) (Dobroff et al., Translat. Onc., 3: 204-217, 2010), were tested for their protective effects against lung colonization by B16F10-Nex2 melanoma cells (2×105) injected intravenously in C57B1/6 mice (6 animals/group). Peptides were intraperitoneally administered (250 μg i.p.) on days 1, 3, 5, 7, 9, 11 after tumor cell challenge. Lungs of peptide-treated animals are shown in FIG. 5 after 22 days of tumor challenge. As noticed, peptide treatment was interrupted 10 days before animal sacrifice.
In vivo protection by peptides RB9 and RB10 (and A4H3 control) against lung colonization by B16F10-Nex2 melanoma cells (2×105) injected intravenously in C57B1/6 mice (6 animals/group) is shown in FIG. 6. The other 5 CDRs of RebMab200 (SEQ ID NOs: 7, 10, 11, 12, 13) were unprotective in vivo. Peptides were administered in the same way as described above, and the number of lung nodules was determined.

Take `C[C@H](NC(=O)[C@H](CCCNC(=N)N)NC(=O)[C@H](C)NC(=O)[C@@H](NC(=O)[C@H](CCC(=O)O)NC(=O)CNC(=O)[C@H](CCCNC(=N)N)NC(=O)[C@@H](C)NC(=O)[C@@H](N)CS)[C@@H](C)O)C(=O)N[C@H](C(=O)N[C@@H](Cc1ccccc1)C(=O)N[C@@H](C)C(=O)N[C@@H](Cc1ccc(O)cc1)C(=O)N[C@@H](Cc1c[nH]c2ccccc12)C(=O)NCC(=O)N[C@@H](CCC(N)=O)C(=O)NCC(N)=O)[C@@H](C)O` [RB10 M3, C(dA)RGETARATFAYWGQG-NH2] (H-C[dA]RGETARATFAYWGQG-NH2; N-terminus assumed): the results for the “inhibition of cell migration (words)” value in data set [1] and in data set [1] (listed as RB10M3) were “complete inhibition” and “Total inhibition”, respectively. In addition, the “inhibition of cell migration” value in data set [2] is “almost complete inhibition”; in [2] (listed as RB10M3), “complete or almost complete inhibition”; in data set [3], “almost complete inhibition”; in [3] (listed as RB10M3), “complete or almost complete inhibition”; in data set [4], “partial inhibition”; in [4] (listed as RB10M3), “partial migration inhibition”.
For “CARGETARATFAYWGQG (Sequence of CDR H3 from RebMab 200 (huMX35), obtainable by a known method) [RB10a]”, in the data set with tumor cells [5] (1 mM peptide), the “adherence at peptide concentration of 1 mM (not suspended by trypsin/EDTA)” value is “hyper-adherence”. Also, the “adherence of tumor cells to the substrate” value in the data set with tumor cells [5] (96-well plates, RPMI 10% FCS, seen in B16F10-Nex2.1, U87MG, A5028 melanoma, SKBR3, SiHa, HCT cells) is “dose dependent increase of adherence”. In addition, the trypsin/EDTA-resistant cell adherence result in data set [6] is on record as “high trypsin/EDTA-resistant cell adherence”. For the same compound, the antitumor activity entry in the data set with tumor cells [7] is “antitumor effects”.
“AIYPGNGDTSYKQKFRG-NH2 [RB8, AIYPGNGDTSYKQKFRG-NH2]” yielded a half-life in data set [8] of less than 1 h. The “protection against lung colonization (lung nodules)” value in [9] is reported as “unprotective”. The values for the antitumor activity result in the data set on tumor cells [7] (listed as RBB) and with tumor cells [7] (listed as SEQ ID NO: 7) were “no antitumor activity” and “no antitumor effect”, respectively.
